The record followed here is US12403129B2, “Isotope-enriched 3-amino-1-propanesulfonic acid derivatives for the treatment of cerebrovascular disease” (RISEN (SUZHOU) PHARMA TECH CO., LTD., priority 2021, dated 2025).

One assay concerns ATP. In words: ATP content of hippocampus and cortex, multiple cerebral infarction dementia rats. The following applies: compared with the model group, p<0.05. Format: in vivo, SD rats. How it is done: (§1) 135 SPF grade SD rats (75 females, 60 males, weighing 200-220 g) were used. Anesthesia was performed by intraperitoneal injection of 3.5% chloral hydrate (350 mg/kg). After dorsal fixation, neck hair removal and iodophor disinfection, animals were cut along the middle of the neck to separate the right common carotid artery, external carotid artery and internal carotid artery. […]
(§2) The main pathological indexes included investigation of the improvement of learning and memory impairment in the dementia model animal by test compound using behavioral experimental methods such as Y maze, new object discrimination, Morris water maze and passive avoidance test (dark avoidance); investigation of the protective effect of test compound on mitochondria by detecting the content of ATP in hippocampus and cortex of rats; and investigation of levels of oxidative stress in the rat brain by measuring activity of superoxide dismutase (SOD, which is an oxygen free-radical scavenger), glutathione peroxidase (GSH-Px, which scavenges lipid peroxides induced by reactive oxygen species and —OH), nitric oxide synthase (NOS), malondialdehyde (MDA), and nitric oxide (NO). […] Expression of synaptic associated proteins SYP and PSD95 was detected by Western blotting. […] Experimental results were statistically analyzed using IBM SPSS 21.0 software. […]

Assay [1] deals with MBP. Nature of the assay: MBP expression, multiple cerebral infarction dementia rats. It counts as in vivo, SD rats. The following applies: compared with the model group, p<0.05. As for the experimental part: as §1, §2
For assay [2], the system named is nitric oxide synthase (NOS). In words: NOS activity in cerebral cortex, multiple cerebral infarction dementia rats. Format: in vivo, SD rats. The following applies: compared with the model group, p<0.05. How it is done: Compound 4, 120 mg/kg, bid; D. Compound 4, 240 mg/kg, bid; E. Compound 4, 480 mg/kg, bid; F. Donepezil, 0.9 mg/kg. Compared with sham operation group: ### P<0.001; Compared with the model group: ** P<0.01, *** P<0.001.
135 SPF grade SD rats (75 females, 60 males, weighing 200-220 g) were used. Anesthesia was performed by intraperitoneal injection of 3.5% chloral hydrate (350 mg/kg). After dorsal fixation, neck hair removal and iodophor disinfection, animals were cut along the middle of the neck to separate the right common carotid artery, external carotid artery and internal carotid artery. The common carotid artery was temporarily clamped by the artery clamp, the left external carotid artery was retrogradely punctured to the beginning of the left internal carotid artery with a pediatric scalp needle, and then 0.4 ml of embolic normal saline suspension was slowly injected with a syringe (the preparation of embolic normal saline suspension was as follows: blood was collected from the abdominal aorta of the same rat, dried naturally in a 37° C. incubator, and prepared for 80-200 minutes to form a blood clot; during application, 0.3 ml normal saline was added to every 10 mg blood clot), and the common carotid artery clamp was opened at the same time, then the external carotid artery was ligated and the skin was sutured. […]

The test system of assay [3] is nerve cells (nucleus, mitochondria and synapse). In words: Ultrastructure of nerve cells (transmission electron microscope), multiple cerebral infarction dementia rats. The following applies: compared with the model group, p<0.05. Format: in vivo, SD rats. As for the experimental part: Compound 4, 120 mg/kg, bid; D. Compound 4, 240 mg/kg, bid; E. Compound 4, 480 mg/kg, bid; F. Donepezil, 0.9 mg/kg.
as §1
The main pathological indexes included investigation of the improvement of learning and memory impairment in the dementia model animal by test compound using behavioral experimental methods such as Y maze, new object discrimination, Morris water maze and passive avoidance test (dark avoidance); investigation of the protective effect of test compound on mitochondria by detecting the content of ATP in hippocampus and cortex of rats; and investigation of levels of oxidative stress in the rat brain by measuring activity of superoxide dismutase (SOD, which is an oxygen free-radical scavenger), glutathione peroxidase (GSH-Px, which scavenges lipid peroxides induced by reactive oxygen species and —OH), nitric oxide synthase (NOS), malondialdehyde (MDA), and nitric oxide (NO). […] Expression of synaptic associated proteins SYP and PSD95 was detected by Western blotting. […]

In a further assay the test system is Bcl-2. Nature of the assay: Bcl-2 expression by Western blotting, ischemia-reperfusion dementia mice. It counts as in vivo, C57BL/6J mice. As for the experimental part:
(§3) 140 healthy C57BL/6J mice, including 70 males and 70 females, were used. 1% Pentobarbital Sodium (50 mg/kg) was injected intraperitoneally to anesthetize the mice. The back position was fixed, the neck hair was removed, and the common carotid arteries were cut along the middle of the neck after iodophor disinfection. The common carotid arteries were separated, clamped with a noninvasive artery clamp for 15 minutes, released for 10 minutes, and then clamped for 10 minutes. Penicillin powder was then applied to suture muscles and skin. The sham operation group was not clamped, and other operations were the same as for the model group. […]
(§4) The main pathological index included: investigation of the improvement of learning and memory impairment by the compound in the pathogenic model of cerebral ischemia-reperfusion using behavioral experimental methods such as Y maze, new object discrimination, spontaneous activity, Morris water maze and passive avoidance experiment (dark avoidance); investigation of the ultrastructure of nerve cells (including nucleus, mitochondria and synapse) by HE staining and immunofluorescence; detection of expression of synaptic associated proteins SYP and PSD95 by Western blotting; and detection of expression of apoptosis-related proteins Bcl-2 and Bax by Western blotting. […] Experimental results were analyzed statistically using IBM SPSS 21.0 software. […]

Assay [4] has as its system mouse model of dementia caused by cerebral ischemia-reperfusion. In words: Cognitive tests in mouse model of dementia caused by cerebral ischemia-reperfusion. It counts as in vivo, C57BL/6J mice. As for the experimental part:
140 healthy C57BL/6J mice, including 70 males and 70 females, were used. 1% Pentobarbital Sodium (50 mg/kg) was injected intraperitoneally to anesthetize the mice. The back position was fixed, the neck hair was removed, and the common carotid arteries were cut along the middle of the neck after iodophor disinfection. The common carotid arteries were separated, clamped with a noninvasive artery clamp for 15 minutes, released for 10 minutes, and then clamped for 10 minutes. Penicillin powder was then applied to suture muscles and skin. The sham operation group was not clamped, and other operations were the same as for the model group. […] Mice were divided into 6 groups: sham operation group, model group, positive control group (donepezil) and test compound group (different doses). Test compounds were administered by gavage to each group on the next day of modeling. The compound group was given compounds once a day in the morning and evening, and the volume of each gavage was 10 ml/kg. Half of the animals in the sham operation group and the model group were given the same amount of distilled water, and half of the animals were given the same amount of 1% sodium carboxymethylcellulose solution. From the 16th day of administration, Y maze, new object discrimination (days 17-20), spontaneous activity (days 20), Morris water maze (days 23-28) and dark avoidance experiment (days 29-30) were carried out successively. During the behavioral experiment, the administration of compound was continued until the animals were sacrificed.
The main pathological index included: investigation of the improvement of learning and memory impairment by the compound in the pathogenic model of cerebral ischemia-reperfusion using behavioral experimental methods such as Y maze, new object discrimination, spontaneous activity, Morris water maze and passive avoidance experiment (dark avoidance); investigation of the ultrastructure of nerve cells (including nucleus, mitochondria and synapse) by HE staining and immunofluorescence; detection of expression of synaptic associated proteins SYP and PSD95 by Western blotting; and detection of expression of apoptosis-related proteins Bcl-2 and Bax by Western blotting. The experimental results for compound 4 on the expression of SYP and PSD95 in the hippocampus of dementia model mice induced by cerebral ischemia-reperfusion are shown in FIG. 5 and FIG. 6 and in Table V below. Experimental results were analyzed statistically using IBM SPSS 21.0 software. The differences between groups were compared by one-way ANOVA or two-way ANOVA (water maze directional navigation) and LSD test. Experimental data were expressed by “mean±SEM”, P<0.05.

Assay [5] relates to MBP. Nature of the assay: MBP expression in ischemia-reperfusion dementia mice. It counts as in vivo, C57BL/6J mice. The following applies: compared with the model group. How it is done: as §3, §4
The mark [6] stands for this setting: Test group vs model group, n = 15-17, dose not stated.
Where [7] appears, read: mice, gavage, morning and evening.

Structures are written as SMILES.

On to `[2H]C([2H])(CCS(=O)(=O)O)NC(=O)[C@@H](N)C(C)C` [compound 4, 3-((L-valyl)amino)-3,3-dideuterium-1-propanesulfonic Acid], for which the “ATP content of hippocampus and cerebral cortex” value in the assay with ATP is given as “significantly increased”. The MBP expression entry with MBP [1] is “increased”. Also, the NOS activity result in assay [2] is recorded as “significantly reduced”. In assay [3], the “ultrastructure of nerve cells” value is given as “improved”. Moreover, the “Bcl-2 expression, p compared with model group” value in the assay with Bcl-2 (setting [6]) was “p < 0.01”. Moreover, in the assay on Bcl-2 (compared with the model group), the “expression of Bcl-2” value was “increased”. In assay [4] (setting [6]), the “Discrimination coefficient for new objects, p compared with model group” value is reported as “p < 0.05”; the “Percentage of swimming distance, p compared with model group” value was “p < 0.05”; the “Priority index for new objects, p compared with model group” value is “p < 0.05”; the “Spontaneous alternating response rate, p compared with model group” value was “p < 0.05”. Further, in assay [4] (setting [6]), the “Swimming time in target quadrant, p compared with model group” value is listed as “p < 0.05”; the “The incubation period for entering the darkroom, p compared with model group” value was “p < 0.05”; the “Times of crossing the platform, p compared with model group” value is on record as “p < 0.01”. In assay [4] (setting [7]), the “discrimination coefficient to new objects in the new object discrimination experiment” value is listed as “improved”, the “incubation period of entering the dark room in the dark avoidance experiment” value is recorded as “prolonged”, the “number of times of crossing the platform” value is “increased” and the “percentage of swimming distance in the target quadrant” value is listed as “improved”. In assay [4] (setting [7]), the “priority index to new objects in the new object discrimination experiment” value is recorded as “improved”, the “spontaneous alternating response rate in the Y maze experiment” value was “significantly improved” and the “swimming time in the target quadrant in the water maze test” value is “prolonged”. In assay [4] (vascular dementia mice caused by cerebral ischemia-reperfusion), the “working memory, image recognition memory, spatial memory and long-term memory impairment” value is reported as “can significantly improve”. The “expression of MBP in hippocampal CA1 area and cerebral cortex” value in the assay with MBP [5] is “increased”.
